According to PMC2920546, “Preclinical Pharmacology of BA-TPQ, a Novel Synthetic Iminoquinone Anticancer Agent” (Marine Drugs, 2010):

Tests used:
[1] = Stability of BA-TPQ in mouse plasma; format: in vitro ADME; settings: for Amount Remaining: mouse plasma
Description: The stability of BA-TPQ was evaluated at two concentrations (0.5 and 5.0 μM). The compound was incubated under the following conditions: 37 °C for 0, 1, 2, 4, and 8 h; 4 °C for 0, 1, 4, 8, and 24 h; and −80 °C for 0, 1, 2, and 4 weeks. At the designated time points, the samples were extracted and analyzed using the established HPLC analytical method. The stability of the iminoquinone was assessed by comparing the initial concentration (time 0) with the final concentration following incubation of the compound at the noted temperatures, and expressing this difference as a percentage of the initial concentration.

[2] = Pharmacokinetics and tissue distribution in nude mice; format: in vivo
Description: Female ICR/CD-1 (18–20 g) mice were purchased from Harlan Laboratories (Indianapolis, IN), and female nude mice (nu/nu; 4–6 weeks) were purchased from Frederick Cancer Research and Development Center (Frederick, MD). All animal use and care procedures were approved by the Institutional Animal Care and Use Committee (IACUC) of the University of Alabama at Birmingham. All animals were fed with commercial diet and water ad libitum and were on an alternating 12 h light/dark cycle.
CD-1 and nude mice were randomly divided into groups of three, and were dosed either intravenously (5 mg/kg) or intraperitoneally (10 mg/kg) with BA-TPQ in PEG 400:ethanol:0.9% saline (57.1%:14.3%:28.6%). Before dosing, and at 5, 15, 30, 60 min, and 2, 4, 8, and 24 h after dosing, groups of animals (three/time point) were anesthetized, and blood was collected from the retro-orbital sinus into heparinized tubes. Plasma was obtained by centrifuging the blood samples at 14,000 rpm for 15 min. BA-TPQ was then extracted from plasma and stored at −80 °C. The brain, heart, kidneys, liver, lungs, and spleen were also collected at the same time points during necropsy, blotted on Whatman No. 1 filter paper, trimmed of extraneous fat and connective tissue, weighed, and homogenized in phosphate-buffered saline. The resulting homogenates were stored at −80 °C until further processing and analysis. Urine and feces were collected for 24 hr from mice housed in metabolic cages. After collection, the cages were also washed twice with 200 μL PBS, and the washes were collected and analyzed separately. The total urine was determined as the amount from the urine plus washes 1 and 2. Feces were homogenized in PBS, then extracted using the same procedure used for tissues.
Six hundred microliters of acetonitrile was added to 200 μL of plasma, urine, cage washes (first and second), or tissue/feces homogenate in an Eppendorf tube to precipitate proteins. After centrifugation at 14,000 rpm for 10 min, the supernatant was transferred to a glass tube and evaporated to dryness using a TurboVap® LV Concentration Workstation (Caliper Lifesciences, Hopkinton, MA). The residue was reconstituted with 500 μL ethyl acetate, sonicated for 10 min, and vortexed for 10 sec. Samples were then centrifuged again and the resulting supernatant was transferred to a new glass tube and evaporated to dryness. Finally, samples were reconstituted in 100 μL mobile phase, and 50 μL was injected into the HPLC system for analysis.
The averages of the BA-TPQ concentration in plasma and tissues following intravenous and intraperitoneal administration to three animals per time point were used for pharmacokinetic analyses using a two-compartmental model and a non-compartment model, respectively. The following pharmacokinetic parameters were estimated using Phoenix WinNonlin 6.0 (Mountain View, CA): area under the concentration-time curve (AUC, h·μg/mL), half-life (T½, h), maximum concentration (Cmax, μg/mL), time of the maximum concentration (Tmax, h), and clearance (CL, mL/h/kg), as applicable. Bioavailability (X) was calculated as X= [AUCip × doseiv]/[AUCiv × doseip].

[3] = system: prostate and breast cancer cell lines; set-up: method as in PMID 19274441, PMID 19936915; settings: cell lines with varying p53 status; cited from earlier work
[4] = system: breast and prostate xenograft tumors; settings: cited from earlier work
[5] = female, nude (nu/nu), mouse, brain, IP 10 mg/kg
[6] = female, nude (nu/nu), mouse, brain, IV 5 mg/kg
[7] = female, nude (nu/nu), mouse, heart, IP 10 mg/kg
[8] = female, nude (nu/nu), mouse, heart, IV 5 mg/kg
[9] = female, nude (nu/nu), mouse, kidneys, IP 10 mg/kg
[10] = female, nude (nu/nu), mouse, kidneys, IV 5 mg/kg
[11] = female, nude (nu/nu), mouse, liver, IP 10 mg/kg
[12] = female, nude (nu/nu), mouse, liver, IV 5 mg/kg
[13] = female, nude (nu/nu), mouse, lungs, IP 10 mg/kg
[14] = female, nude (nu/nu), mouse, lungs, IV 5 mg/kg
[15] = female, nude (nu/nu), mouse, plasma, IP 10 mg/kg
[16] = female, nude (nu/nu), mouse, plasma, IV 5 mg/kg
[17] = female, nude (nu/nu), mouse, spleen, IP 10 mg/kg
[18] = female, nude (nu/nu), mouse, spleen, IV 5 mg/kg

O=C1C(NCc2ccccc2)=CC2=NCCc3c[nH]c1c32 [BA-TPQ, 7-(benzylamino)-1,3,4,8-tetrahydropyrrolo[4,3,2-de]quinolin-8(1H)-one]
Stability in mouse plasma (in words) ([1]; 37 °C, 4 °C and −80 °C, 0.5 μM and 5.0 μM): very stable
Amount Remaining ([1]; 4 °C, 24 hr, 0.5 μM): 94%
Amount Remaining ([1]; 4 °C, 24 hr, 5.0 μM): 117%
Amount Remaining ([1]; 37 °C, 8 hr, 0.5 μM): 92%
Amount Remaining ([1]; 37 °C, 8 hr, 5.0 μM): 114%
Amount Remaining ([1]; −80 °C, 4 weeks, 0.5 μM): 95%
Amount Remaining ([1]; −80 °C, 4 weeks, 5.0 μM): 100%
Time of greatest plasma concentration ([2]; IP 10 mg/kg): 1 h
Cl ([2]; brain, IP 10 mg/kg): 650 mL/min/kg
AUC [2, 5]: 770 ng·h/mL
Cmax [2, 5]: 90 ng/mL
Tmax [2, 5]: 60 min
half-life [2, 5]: 244 min
AUC [2, 6]: 340 ng·h/mL
Cmax [2, 6]: 620 ng/mL
clearance [2, 6]: 1730 mL/min/kg
half-life [2, 6]: 22.8 min
AUC [2, 7]: 7630 ng·h/mL
Cmax [2, 7]: 6380 ng/mL
Tmax [2, 7]: 15 min
half-life [2, 7]: 30 min
AUC [2, 8]: 6370 ng·h/mL
Cmax [2, 8]: 48800 ng/mL
clearance [2, 8]: 83.3 mL/min/kg
half-life [2, 8]: 5.4 min
AUC [2, 9]: 12600 ng·h/mL
Cmax [2, 9]: 10800 ng/mL
Tmax [2, 9]: 30 min
half-life [2, 9]: 29.4 min
AUC [2, 10]: 5480 ng·h/mL
Cmax [2, 10]: 20800 ng/mL
clearance [2, 10]: 100 mL/min/kg
half-life [2, 10]: 10.8 min
AUC [2, 11]: 2760 ng·h/mL
Cmax [2, 11]: 4560 ng/mL
Tmax [2, 11]: 4.8 min
half-life [2, 11]: 31.8 min
AUC [2, 12]: 710 ng·h/mL
Cmax [2, 12]: 2710 ng/mL
clearance [2, 12]: 817 mL/min/kg
half-life [2, 12]: 10.8 min
AUC [2, 13]: 13200 ng·h/mL
Cmax [2, 13]: 14800 ng/mL
Tmax [2, 13]: 4.8 min
half-life [2, 13]: 35.4 min
AUC [2, 14]: 9180 ng·h/mL
Cmax [2, 14]: 18400 ng/mL
clearance [2, 14]: 66.7 mL/min/kg
half-life [2, 14]: 21 min
AUC [2, 15]: 150 ng·h/mL
Cmax [2, 15]: 220 ng/mL
Tmax [2, 15]: 15 min
half-life [2, 15]: 70.2 min
bioavailability ([2]; female, nude (nu/nu), mouse, plasma, IP 10 mg/kg vs IV 5 mg/kg, read-out: Intraperitoneal bioavailability): 100%
AUC [2, 16]: 40 ng·h/mL
Cmax [2, 16]: 150 ng/mL
half-life [2, 16]: 10.2 min
AUC [2, 17]: 18300 ng·h/mL
Cmax [2, 17]: 31200 ng/mL
Tmax [2, 17]: 15 min
half-life [2, 17]: 99 min
AUC [2, 18]: 4980 ng·h/mL
Cmax [2, 18]: 11000 ng/mL
clearance [2, 18]: 117 mL/min/kg
half-life [2, 18]: 18.6 min
Cl ([2]; heart, IP 10 mg/kg): 83 mL/min/kg
Cl ([2]; kidneys, IP 10 mg/kg): 50 mL/min/kg
Cl ([2]; liver, IP 10 mg/kg): 217 mL/min/kg
Cl ([2]; lungs, IP 10 mg/kg): 50 mL/min/kg
Cl ([2]; plasma, IP 10 mg/kg): 3920 mL/min/kg
Cl ([2]; spleen, IP 10 mg/kg): 33 mL/min/kg
In vitro growth of prostate and breast cancer cell lines [3]: inhibit in vitro growth
Death in mice on repeated dosing ([4]; 10 mg/kg, three times per week for up to six weeks): does not cause death
Toxicity in mice (weight loss) ([4]; especially at 10 mg/kg, 3 days/week for several weeks): systemic toxicity
Tumor growth in mouse xenograft models ([4]; prostate and breast cancer xenografts): inhibit tumor growth
